Reference: US20260028336A1 (Arcus Biosciences, Inc., priority 2022, published 2026)

How the values were obtained:
Cbl-b = biological target: T1, Cbl-b (Homo sapiens, UniProt Q13191); assay: Cbl-b probe displacement HTRF binding assay; details: 0.4 nM biotinylated Cbl-b, 150 nM BODIPY probe
T1 construct: biotin (biotinylated)
Experimental: The affinity with which compounds of the present dislcosure bind to Cbl-b was assessed using probe displacement homologous time resolved fluorescence (HTRF) assays. […] The assays were performed in assay buffer consisting of 20 mM Hepes, 150 mM NaCl, 0.01% Triton X-100, 0.5 mM TCEP, 0.01% BSA. On the day of the assay, a 20 point, 1:2 master serial dilution of each compound was prepared in DMSO to span a final concentration range of […] to 0 nM. Two hundred nanoliters of diluted compound was added to each well of a 384-well plate. Fifteen microliters of biotinylated-Cbl-b resuspended in assay buffer were added to each well and the plate incubated for 60 minutes at room temperature prior to addition of 5 μL of BODIPY™ probe in assay buffer. […] After a further 15 minutes of incubation at room temperature, 5 μl of Streptavidin-Terbium cryptate reagent at 5-fold final concentration was added to each well of the 384-well plate. Binding of a probe to Cbl-b results in an increase of HTRF signal. […] Percentage maximum activity in each test well was calculated based on DMSO (maximum activity, 0% displacement) and no protein control wells (baseline activity, 100% displacement). Binding affinity was determined from a dose response curve fitted using a standard four parameter fit equation.

Jurkat cells = assay: IL-2 secretion assay in CD3/CD28-activated Jurkat cells (AlphaLISA); assay type: cell-based; details: Homo sapiens, CD3/CD28 T Cell Activator, 24 h, IL-2 AlphaLISA
Experimental: Certain compounds were also evaluated in an IL-2 secretion assay. On the day of the assay, a 16 point, 1:2 master serial dilution of each compound was prepared in Opti-MEM to span a final concentration range of 10 μM to 300 pM. Assays were set up in CORNING® tissue culture-treated 384-well microplates containing 60 nL of each dilution. […] 50,000 cells/well and added to the compound plates. After a short spin (1200 rpm for 1 min), the plates were incubated at 37° C. for 1 hour. The cells were activated by adding 15 μL of IMMUNOCULT™ Human CD3/CD28 T Cell Activator ([…] Technologies) diluted in Opti-MEM. […] The AiphaLISA signal was measured using an EnVision plate reader (PerkinElmer). EC50 values were determined by fitting the data to a standard 4-parameter logistic equation.

T1 sequence (Q13191 whole entry, species assumed): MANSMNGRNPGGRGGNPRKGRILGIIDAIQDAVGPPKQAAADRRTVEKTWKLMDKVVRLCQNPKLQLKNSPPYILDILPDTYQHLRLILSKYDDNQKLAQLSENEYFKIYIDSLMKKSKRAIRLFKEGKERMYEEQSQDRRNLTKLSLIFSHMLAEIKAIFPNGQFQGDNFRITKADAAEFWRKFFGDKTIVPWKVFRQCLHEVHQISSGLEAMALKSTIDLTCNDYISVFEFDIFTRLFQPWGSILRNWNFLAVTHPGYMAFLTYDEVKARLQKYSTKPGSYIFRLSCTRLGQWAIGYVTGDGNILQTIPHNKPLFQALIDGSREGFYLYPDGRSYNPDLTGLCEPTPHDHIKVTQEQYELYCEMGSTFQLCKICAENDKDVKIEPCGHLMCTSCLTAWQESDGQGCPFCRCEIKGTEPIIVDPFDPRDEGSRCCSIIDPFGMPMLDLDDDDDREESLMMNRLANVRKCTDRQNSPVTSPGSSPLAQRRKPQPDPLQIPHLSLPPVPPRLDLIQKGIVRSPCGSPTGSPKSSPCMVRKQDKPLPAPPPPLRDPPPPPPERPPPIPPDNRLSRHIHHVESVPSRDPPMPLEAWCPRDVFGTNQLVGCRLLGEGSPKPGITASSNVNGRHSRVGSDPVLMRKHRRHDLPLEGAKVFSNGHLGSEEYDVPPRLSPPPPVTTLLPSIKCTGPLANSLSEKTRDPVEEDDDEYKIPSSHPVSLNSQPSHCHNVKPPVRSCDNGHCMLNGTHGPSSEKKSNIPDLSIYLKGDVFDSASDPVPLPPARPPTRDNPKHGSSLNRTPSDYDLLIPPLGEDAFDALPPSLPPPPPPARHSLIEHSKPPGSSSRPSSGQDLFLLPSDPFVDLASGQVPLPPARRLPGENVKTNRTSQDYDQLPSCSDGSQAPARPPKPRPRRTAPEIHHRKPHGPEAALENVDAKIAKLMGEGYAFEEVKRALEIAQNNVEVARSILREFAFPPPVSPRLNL

IC50 (Cbl-b)	EC50 (Jurkat cells)	Compound
< 0.1 µM	0.1 to 1 µM	C[C@H]1CCCN(Cc2cc3c(C4CC4)cn(-c4cccc(C(O)(c5nncn5C)C(F)(F)F)c4)c(=O)c3[nH]2)C1 (some centres unmarked) [Example 156]
0.1 to 1 µM	1 to 5 µM	CC1CC(c2cccc(-n3cc(C4CC4)c4cc(CN(C)S(C)(=O)=O)[nH]c4c3=O)c2)(c2nncn2C)C1 (centres unmarked) [Example 69, N-[(4-cyclopropyl-7-oxo-6-{3-[(1r,3s)-3-methyl-1-(4-methyl-4H-1,2,4-triazol-3-yl)cyclobutyl]phenyl}-1H,6H,7H-pyrrolo[2,3-c]pyridin-2-yl)methyl]-N-methylmethanesulfonamide]
< 0.1 µM	0.1 to 1 µM	C[C@H]1CCCN(Cc2cc3c(C4CC4)cn(-c4cccc(C(O)(c5nncn5C)C5CCC5)c4)c(=O)c3[nH]2)C1 (stereo partly drawn) [Example 155, 6-[3-[cyclobutyl-hydroxy-(4-methyl-1,2,4-triazol-3-yl)methyl]phenyl]-4-cyclopropyl-2-[[(3S)-3-methylpiperidin-1-yl]methyl]-1H-pyrrolo[2,3-c]pyridin-7-one]
< 0.1 µM	1 to 5 µM	CC1CC(c2cccc(-n3cc(C4CC4)c4cc(CN5C[C@@H](F)C[C@H](F)C5)[nH]c4c3=O)c2)(c2nncn2C)C1 (stereo partly drawn) [Example 65, 4-cyclopropyl-2-{[(3S,5S)-3,5-difluoropiperidin-1-yl]methyl}-6-{3-[(1r,3s)-3-methyl-1-(4-methyl-4H-1,2,4-triazol-3-yl)cyclobutyl]phenyl}-1H,6H,7H-pyrrolo[2,3-c]pyridin-7-one]
0.1 to 1 µM	1 to 5 µM	CC1CC(c2cccc(-n3cc(C4CC4)c4cc(CN5CCN(C)[C@H](C)C5)[nH]c4c3=O)c2)(c2nncn2C)C1 (stereo partly drawn) [Example 61, 4-cyclopropyl-2-{[(3R)-3,4-dimethylpiperazin-1-yl]methyl}-6-{3-[3-methyl-1-(4-methyl-4H-1,2,4-triazol-3-yl)cyclobutyl]phenyl}-1H,6H,7H-pyrrolo[2,3-c]pyridin-7-one]
< 0.1 µM	< 0.1 µM	C[C@H]1CCCN(Cc2nc3c(C4CC4)cn(-c4cccc([C@]5(c6nncn6C)C[C@H](C)C5)c4)c(=O)c3[nH]2)C1 [Example 109, 7-cyclopropyl-5-[3-[3-methyl-1-(4-methyl-1,2,4-triazol-3-yl)cyclobutyl]phenyl]-2-[[(3S)-3-methylpiperidin-1-yl]methyl]-3H-imidazo[4,5-c]pyridin-4-one]
< 0.1 µM	0.1 to 1 µM	CC1CC(c2cccc(-n3cc(C4CC4)c4cc(CN[C@H]5CCOC5)[nH]c4c3=O)c2)(c2nncn2C)C1 (stereo partly drawn) [Example 56, 4-cyclopropyl-2-({[(3S)-oxolan-3-yl]amino}methyl)-6-{3-[(1r,3s)-3-methyl-1-(4-methyl-4H-1,2,4-triazol-3-yl)cyclobutyl]phenyl}-1H,6H,7H-pyrrolo[2,3-c]pyridin-7-one]
1 to 5 µM	> 5 µM	Cn1cnnc1C1(c2cccc(-n3cc(C(F)(F)F)c4nc(CN5CCC(F)(F)C5)[nH]c4c3=O)c2)CC(F)(F)C1 [Example 115, 5-[3-[3,3-difluoro-1-(4-methyl-1,2,4-triazol-3-yl)cyclobutyl]phenyl]-2-[(3,3-difluoropyrrolidin-1-yl)methyl]-7-(trifluoromethyl)-3H-imidazo[4,5-c]pyridin-4-one]
< 0.1 µM	0.1 to 1 µM	C[C@H]1CCCN(Cc2cc3ncn(-c4cccc(C5(c6nncn6C)CC(F)(F)C5)c4)c(=O)c3[nH]2)C1 [Example 120, 3-{3-[3,3-Difluoro-1-(4-methyl-4H-1,2,4-triazol-3-yl)cyclobutyl]phenyl}-6-{[(3S)-3-methylpiperidin-1-yl]methyl}-3H,4H,5H-pyrrolo[3,2-d]pyrimidin-4-one]
–	< 0.1 µM	C[C@H]1CCCN(Cc2cc3c(C4CC4)cn(-c4cccc([C@]5(c6nncn6C)C[C@@H](C)C5)c4)c(=O)c3[nH]2)C1 [Example 3, 4-cyclopropyl-6-[3-[3-methyl-1-(4-methyl-1,2,4-triazol-3-yl)cyclobutyl]phenyl]-2-[[(3S)-3-methylpiperidin-1-yl]methyl]-1H-pyrrolo[2,3-c]pyridin-7-one]
> 5 µM	–	CC1CC(c2cccc(-n3cc(C4CC4)c4ccsc4c3=O)c2)(c2nncn2C)C1 (centres unmarked) [Example 6, 4-cyclopropyl-6-{3-[3-methyl-1-(4-methyl-4H-1,2,4-triazol-3-yl)cyclobutyl]phenyl}-6H,7H-thieno[2,3-c]pyridin-7-one]
< 0.1 µM	–	CC1CC(c2cccc(-n3cc(C(F)(F)F)c4c(C#N)c[nH]c4c3=O)c2)(c2nncn2C)C1 (mixture of isomers) [Example 136, 7-Oxo-6-{3-[(1R,3S)-3-methyl-1-(4-methyl-4H-1,2,4-triazol-3-yl)cyclobutyl]phenyl}-4-(trifluoromethyl)-1H,6H,7H-pyrrolo[2,3-c]pyridine-3-carbonitrile]
1 to 5 µM	–	Cn1cnnc1[C@]1(c2cccc(-n3cc(C4CC4)c4c(C(=O)O)c[nH]c4c3=O)c2)C[C@@H](C)C1 (single isomer, unassigned) [Example 20, 4-Cyclopropyl-7-oxo-6-{3-[(1s,3r)-3-methyl-1-(4-methyl-4H-1,2,4-triazol-3-yl)cyclobutyl]phenyl}-1H,6H,7H-pyrrolo[2,3-c]pyridine-3-carboxylic acid]
< 0.1 µM	–	C[C@H]1CCCN(Cc2cc3ncn(-c4cccc([C@]5(c6nncn6C(F)F)C[C@H](OC(F)F)C5)c4)c(=O)c3[nH]2)C1 [Example 153, 2—{[(S)-3-methyl-1-piperidyl]methyl}-6-(m-{(1r,3S)-3-difluoromethoxy-1-[4-(difluoromethyl)-4H-1,2,4-triazol-3-yl]cyclobutyl}phenyl)-1,6-dihydro-1,4,6-triaza-7-indenone]
–	1 to 5 µM	C[C@H]1CCCN(Cc2cc3c(C4CC4)cn(-c4cccc([C@]5(c6nncn6C)C[C@H](O)C5)c4)c(=O)c3[nH]2)C1 [Example 99, trans-4-cyclopropyl-6-[3-[3-hydroxy-1-(4-methyl-1,2,4-triazol-3-yl)cyclobutyl]phenyl]-2-[[(3S)-3-methylpiperidin-1-yl]methyl]-1H-pyrrolo[2,3-c]pyridin-7-one]
0.1 to 1 µM	–	CC1CC(c2cccc(-n3cc(C4CC4)c4nc[nH]c4c3=O)c2)(c2nncn2C)C1 (centres unmarked) [Example 11, 7-cyclopropyl-5-{3-[(1r,3s)-3-methyl-1-(4-methyl-4H-1,2,4-triazol-3-yl)cyclobutyl]phenyl}-3H,4H,5H-imidazo[4,5-c]pyridin-4-one]
1 to 5 µM	–	Cn1cnnc1[C@]1(c2cccc(-n3ccc4cc[nH]c4c3=O)c2)C[C@@H](C)C1 (single isomer, unassigned) [Example 31, 6-{3-[(1s,3r)-3-methyl-1-(4-methyl-4H-1,2,4-triazol-3-yl)cyclobutyl]phenyl}-1H,6H,7H-pyrrolo[2,3-c]pyridin-7-one]
0.1 to 1 µM	–	Cc1c[nH]c2c(=O)n(-c3cccc([C@]4(c5nncn5C)C[C@@H](C)C4)c3)cc(C3CC3)c12 [Example 17, 4-Cyclopropyl-3-methyl-6-{3-[(1r,3s)-3-methyl-1-(4-methyl-4H-1,2,4-triazol-3-yl)cyclobutyl]phenyl}-1H,6H,7H-pyrrolo[2,3-c]pyridin-7-one]
< 0.1 µM	–	Cn1cncc1-c1c[nH]c2c(=O)n(-c3cccc([C@]4(c5nncn5C)C[C@H](C)C4)c3)cc(C3CC3)c12 (single isomer, unassigned) [Example 35]
0.1 to 1 µM	–	Cn1cnnc1[C@]1(c2cccc(-n3ccc4c(C5CC5)c[nH]c4c3=O)c2)C[C@H](C)C1 (single isomer, unassigned) [Example 13, 3-cyclopropyl-6-{3-[(1r,3s)-3-methyl-1-(4-methyl-4H-1,2,4-triazol-3-yl)cyclobutyl]phenyl}-1H,6H,7H-pyrrolo[2,3-c]pyridin-7-one]
0.1 to 1 µM	–	Cn1cnnc1[C@]1(c2cccc(-n3ccc4c(C#N)c[nH]c4c3=O)c2)C[C@H](C)C1 (single isomer, unassigned) [Example 27, 7-Oxo-6-{3-[(1r,3s)-3-methyl-1-(4-methyl-4H-1,2,4-triazol-3-yl)cyclobutyl]phenyl}-1H,6H,7H-pyrrolo[2,3-c]pyridine-3-carbonitrile]
0.1 to 1 µM	–	Cn1cnnc1[C@]1(c2cccc(-n3cc(C4CC4)c4c(S(C)(=O)=O)c[nH]c4c3=O)c2)C[C@H](C)C1 (single isomer, unassigned) [Example 25, 4-Cyclopropyl-3-methanesulfonyl-6-{3-[(1r,3s)-3-methyl-1-(4-methyl-4H-1,2,4-triazol-3-yl)cyclobutyl]phenyl}-1H,6H,7H-pyrrolo[2,3-c]pyridin-7-one]
> 5 µM	–	CC1CC(c2cccc(-n3cc(C4CC4)c4cc(CN5CCC[C@H](C)C5)n(C)c4c3=O)c2)(c2nncn2C)C1 (stereo partly drawn) [Example 5, 4-cyclopropyl-1-methyl-6-[3-[3-methyl-1-(4-methyl-1,2,4-triazol-3-yl)cyclobutyl]phenyl]-2-[[(3S)-3-methylpiperidin-1-yl]methyl]pyrrolo[2,3-c]pyridin-7-one]
